Results from US20080096807A1, “Cyclic vasoactive intestinal peptide receptor-2 agonists” (priority 2006, published 2008).
pEC50: −log10 of the molar value. Numbered stars: 1 amine (or outer) side, 2 acyl side, 3 side chain; on linkers, the order of the positions; unused ones are H or OH. Bridge positions count the residues as written; N and C are the ends. Square brackets hold non-standard residues; d marks the D form. Peptide text beside a SMILES is read from it. ξ: configuration not given here. X1 = N=C(N)CNCC[C@H](N[*:1])C(=O)[*:2]; Thr(3ξ) = CC(O)[C@H](N)C(=O)O; Nle = CCCC[C@H](N)C(=O)O

Experiments:
VPAC2 receptor = molecular target: T1, VPAC2 receptor (Homo sapiens, UniProt P41587); assay: Sup-T1 cAMP agonist assay; format: cell-based; conditions: human T-lymphoid cell line Sup-T1 expressing VPAC2 receptor; cAMP EIA; 5 min at room temperature; read-out: Sup-T1 cAMP EC50
T1 construct: The human T-lymphoid cell line Sup-Ti, which expresses the VPAC2 receptor; host or cells: Sup-T1 (Sup-Ti [sic]) human T-lymphoid cell line
T1 sequence (P41587 24-438): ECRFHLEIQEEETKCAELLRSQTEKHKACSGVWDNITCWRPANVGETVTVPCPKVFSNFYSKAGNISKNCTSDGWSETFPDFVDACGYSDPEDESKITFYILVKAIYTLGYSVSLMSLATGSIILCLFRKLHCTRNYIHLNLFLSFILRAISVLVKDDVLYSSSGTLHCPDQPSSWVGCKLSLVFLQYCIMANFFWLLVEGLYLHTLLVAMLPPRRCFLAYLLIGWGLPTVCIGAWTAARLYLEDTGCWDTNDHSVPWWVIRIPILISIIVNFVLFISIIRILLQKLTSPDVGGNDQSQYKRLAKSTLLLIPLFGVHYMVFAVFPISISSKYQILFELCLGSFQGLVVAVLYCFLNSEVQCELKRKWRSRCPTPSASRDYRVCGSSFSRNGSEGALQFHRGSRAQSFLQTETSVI
Procedure: The human T-lymphoid cell line Sup-Ti, which expresses the VPAC2 receptor, was obtained from the American Type Culture Collection (ATCC, CRL-1942) and maintained in growth medium at densities between 0.2 and 2×10^6 cells/ml in a 37° C. CO2 incubator. The growth medium was RPMI 1640 (Invitrogen) supplemented with 25 mM HEPES buffer and 10% fetal bovine serum (Gemini Bioproducts).
To evaluate VPAC2 agonist compound activity, cells in log-phase growth were washed once with growth medium at room temperature and plated into 96-well plates at a density of 4×10^4 cells per well in 150 uL of growth medium. Fifty uL of the compounds to be tested, prepared at appropriate concentrations in growth medium, were then added to designated wells. After 5 min at room temperature, the cells were lysed by adding 25 uL of lysis reagent 1A (cAMP Biotrak EIA system, Amersham Biosciences, RPN225) to each well. The 96-well plates were kept at room temperature for 10 min with shaking and then stored at 4° C. until analysis for cAMP (within 2 hr).
Cyclic AMP levels were determined in 100 uL of each lysate using the cAMP Biotrak Enzymeimmunoassay (EIA) kit according to the manufacture's instructions (Amersham Biosciences, RPN225). The activity of each VPAC2 agonist compound (EC50 value) was estimated by fitting the 7-concentration dose response data to a sigmoidal dose-response equation provided by the GraphPad Prism program (GraphPad Software, Inc.).

[1] = system: LPS-induced lung inflammation in male C57BL/6 mice; assay: LPS-induced lung inflammation in male C57BL/6 mice (BAL neutrophilia); format: in vivo; conditions: BAL fluid neutrophilia
Procedure: C57bl/6 mice are pretreated with vehicle or drug prior to an aerosol expose to lipopolysacchride (LPS, 500 μg/ml in sterile saline) for 15-30 minutes. The aerosol is generated by a Pari Ultra neb jet nebulizer, the outlet of which is connected to a small clear plastic chamber [H×W×D, 10.7×25.7×11 cm (4×10×4.5 in)] containing the animals. Bronchoalveolar lavage (BAL) is performed 24 hr later to determine the intensity of cell inflammation. BAL procedure is performed as described below.
Mice are pretreated with vehicle or drug prior to an intranasal administration of lipopolysacchride (0.05-0.3 mg/kg in sterile saline; 50 μl total volume, 25 μl/nostril). Intranasal administration is performed by presenting small droplets of the dosing solution at the nostril using a 25-50 μl eppendorff pipet. BAL is performed 3 to 24 h post LPS challenged as described above to determine the intensity of cell inflammation.
24 h following LPS exposure, animals are anesthetized with pentobarbital (80-100 mg/kg, i.p.), ketamine/xyzaline (80-120 mg/kg/2-4 mg/kg, i.p.) or urethane (1.5-2.4 g/kg, i.p.); and through a small midline neck incision (15-20 mm), the trachea is exposed and cannulated with 20-gauge tubing adapter. Lungs are lavaged with 2×1 ml sterile Hank's balanced salt solution without Ca++ and Mg++(HBSS). Lavage fluid is recovered after 30 sec by gentle aspiration and pooled for each animal. Samples are then centrifuged at 2000 rpm for 10 minutes at 5° C. Supernatant is aspirated, and red blood cells are lysed from the resulting pellet with 0.5 ml distilled water for 30 sec before restoring osmolarity to the remaining cells by the addition of 5 ml of HBSS. Samples are recentrifuged at 2000 rpm for 10 minutes at 5° C. and supernatant aspirated. The resulting pellet is resuspended in 1 ml of HBSS. Total cell number is determined by Trypan Blue (Sigma Chemical, St. Louis, Mo.) exclusion from an aliquot of cell suspension using a hemocytometer or coulter counter. For differential cell counts, an aliquot of the cell suspension is centrifuged in a Cytospin (5 min, 1300 rpm; Shandon Southern Instruments, Sewickley, Pa.) and the slides fixed and stained with a modified Wright's stain (Hema 3 stain kit, Fisher Scientific). Standard morphological criteria is used in classifying at least 300 cells under light microscopy. Data in Table 3 is expressed as BAL cells×10^4/animal for neutrophils and total cells, or percent inhibition of the LPS induced BAL fluid neutrophilia response.

[2] = molecular target: T2, human neutrophil elastase (Homo sapiens, UniProt P08246); assay: Peptide stability to neutrophil elastase (RP HPLC ESI MS); conditions: halftime with human neutrophil elastase 1 to 2 μg/mL in PBS, ambient temperature, normalized to halftime of the reference standard
T2 sequence (P08246 30-247 limits assumed): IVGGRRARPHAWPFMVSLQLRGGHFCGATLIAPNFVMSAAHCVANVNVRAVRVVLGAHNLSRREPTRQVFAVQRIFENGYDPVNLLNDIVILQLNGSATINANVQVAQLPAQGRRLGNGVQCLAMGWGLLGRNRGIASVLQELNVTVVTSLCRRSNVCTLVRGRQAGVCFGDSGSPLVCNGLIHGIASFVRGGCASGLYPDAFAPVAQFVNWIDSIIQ

Row | SMILES | pEC50 (VPAC2 receptor) | Relative elastase stability [2] | Inhibition of LPS-induced neutrophilia ([1]; Dose 0.01%) | Inhibition of LPS-induced neutrophilia ([1]; Dose 0.1%)
1 | CCCC[C@H](NC(=O)[C@H](CCNCC(=N)N)NC(=O)[C@H](CCCCN)NC(=O)[C@H](CCCNC(=N)N)NC(=O)[C@H](CC(C)C)NC(=O)[C@H](CCCCN)NC(=O)[C@@H](NC(=O)[C@H](Cc1ccc(O)cc1)NC(=O)[C@H](CC(N)=O)NC(=O)[C@H](CCC(=O)O)NC(=O)[C@@H](NC(=O)[C@H](Cc1ccccc1)NC(=O)[C@H](CO)NC(=O)[C@H](C)NC(=O)[C@H](CC(=O)O)NC(=O)[C@H](CO)NC(=O)[C@H](Cc1c[nH]cn1)NC(C)=O)C(C)O)C(C)O)C(=O)N[C@@H](C)C(=O)N[C@@H](C)C(=O)N[C@@H](CCCCN)C(=O)N[C@H]1CCCCNC(=O)C[C@@H](C(=O)N[C@@H](CC(C)C)C(=O)N[C@@H](CCCCN)C(=O)N[C@@H](CCCCN)C(=O)NCC(=O)NCC(=O)N[C@H](C(N)=O)C(C)O)NC(=O)[C@H](CC(N)=O)NC(=O)[C@H](CC(C)C)NC(=O)[C@H](Cc2ccc(O)cc2)NC1=O (stereo partly drawn) [Example 13] (Ac-HSDASF[Thr(3ξ)]ENY[Thr(3ξ)]KLRK[X1][Nle]AAKKYLNDLKKGG[Thr(3ξ)]-NH2; lactam 21-25) | 7.75 | 1.7 | ++ (++ >30%) | –
2 | CCCC[C@H](NC(=O)[C@H](C)NC(=O)[C@H](CCCCN)NC(=O)[C@H](CCCNC(=N)N)NC(=O)[C@H](CC(C)C)NC(=O)[C@H](CCCCN)NC(=O)[C@@H](NC(=O)[C@H](Cc1ccc(O)cc1)NC(=O)[C@H](CC(N)=O)NC(=O)[C@H](CCC(=O)O)NC(=O)[C@@H](NC(=O)[C@H](Cc1ccccc1)NC(=O)[C@H](CO)NC(=O)[C@H](C)NC(=O)[C@H](CC(=O)O)NC(=O)[C@H](CO)NC(=O)[C@H](Cc1c[nH]cn1)NC(C)=O)C(C)O)C(C)O)C(=O)N[C@@H](CCC(=O)O)C(=O)N[C@@H](C)C(=O)N[C@@H](CCCCN)C(=O)N[C@H]1CCCCNC(=O)C[C@@H](C(=O)N[C@@H](CC(C)C)C(=O)N[C@@H](CCCCN)C(=O)N[C@@H](CCCCN)C(=O)NCC(=O)NCC(=O)N[C@H](C(N)=O)C(C)O)NC(=O)[C@H](CC(N)=O)NC(=O)[C@H](CC(C)C)NC(=O)[C@H](Cc2ccc(O)cc2)NC1=O (stereo partly drawn) [Example 10] (Ac-HSDASF[Thr(3ξ)]ENY[Thr(3ξ)]KLRKA[Nle]EAKKYLNDLKKGG[Thr(3ξ)]-NH2; lactam 21-25) | 6.35 | 7.4 | ++ (++ >30%) | –
3 | CCCC[C@H](NC(=O)[C@H](CCC(N)=O)NC(=O)[C@H](CCCCN)NC(=O)[C@H](CCCNC(=N)N)NC(=O)[C@H](CC(C)C)NC(=O)[C@H](CCCCN)NC(=O)[C@@H](NC(=O)[C@H](Cc1ccc(O)cc1)NC(=O)[C@H](CC(N)=O)NC(=O)[C@H](CCC(=O)O)NC(=O)[C@@H](NC(=O)[C@H](Cc1ccccc1)NC(=O)[C@H](CO)NC(=O)[C@H](C)NC(=O)[C@H](CC(=O)O)NC(=O)[C@H](CO)NC(=O)[C@H](Cc1c[nH]cn1)NC(C)=O)C(C)O)C(C)O)C(=O)N[C@@H](CCC(=O)O)C(=O)N[C@@H](C)C(=O)N[C@@H](CCCCN)C(=O)N[C@H]1CCCCNC(=O)C[C@@H](C(=O)N[C@@H](CC(C)C)C(=O)N[C@@H](CCCCN)C(=O)N[C@@H](CCCCN)C(=O)NCC(=O)NCC(=O)N[C@H](C(N)=O)C(C)O)NC(=O)[C@H](CC(N)=O)NC(=O)[C@H](CC(C)C)NC(=O)[C@H](Cc2ccc(O)cc2)NC1=O (stereo partly drawn) [Example 7] (Ac-HSDASF[Thr(3ξ)]ENY[Thr(3ξ)]KLRKQ[Nle]EAKKYLNDLKKGG[Thr(3ξ)]-NH2; lactam 21-25) | 6.20 | 16.4 | ++ (++ >30%) | –

Now from value to compound, other results behind:

Row | pEC50 (VPAC2 receptor) | Relative elastase stability [2] | SMILES | Inhibition of LPS-induced neutrophilia ([1]; Dose 0.01%) | Inhibition of LPS-induced neutrophilia ([1]; Dose 0.1%)
4 | 7.16 | 5.2 | CCCC[C@H](NC(=O)[C@H](CCC(N)=O)NC(=O)[C@H](CCCCN)NC(=O)[C@H](CCCNC(=N)N)NC(=O)[C@H](CC(C)C)NC(=O)[C@H](CCCCN)NC(=O)[C@@H](NC(=O)[C@H](Cc1ccc(O)cc1)NC(=O)[C@H](CC(N)=O)NC(=O)[C@H](CCC(=O)O)NC(=O)[C@@H](NC(=O)[C@H](Cc1ccccc1)NC(=O)[C@H](CO)NC(=O)[C@H](C)NC(=O)[C@H](CC(=O)O)NC(=O)[C@H](CO)NC(=O)[C@H](Cc1c[nH]cn1)NC(C)=O)C(C)O)C(C)O)C(=O)N[C@@H](C)C(=O)N[C@@H](C)C(=O)N[C@@H](CCCCN)C(=O)N[C@H]1CCCCNC(=O)C[C@@H](C(=O)N[C@@H](CC(C)C)C(=O)N[C@@H](CCCCN)C(=O)N[C@@H](CCCCN)C(=O)NCC(=O)NCC(=O)N[C@H](C(N)=O)C(C)O)NC(=O)[C@H](CC(N)=O)NC(=O)[C@H](CC(C)C)NC(=O)[C@H](Cc2ccc(O)cc2)NC1=O (stereo partly drawn) [Example 2] (Ac-HSDASF[Thr(3ξ)]ENY[Thr(3ξ)]KLRKQ[Nle]AAKKYLNDLKKGG[Thr(3ξ)]-NH2; lactam 21-25) | – | + (+ 10-30%)
5 | 7.42 | 3.9 | CCCC[C@H](NC(=O)[C@H](CCC(N)=O)NC(=O)[C@H](CCCCN)NC(=O)[C@H](CCCNC(=N)N)NC(=O)[C@H](CC(C)C)NC(=O)[C@H](CCCCN)NC(=O)[C@@H](NC(=O)[C@H](Cc1ccc(O)cc1)NC(=O)[C@H](CC(N)=O)NC(=O)[C@H](CCC(=O)O)NC(=O)[C@@H](NC(=O)[C@H](Cc1ccccc1)NC(=O)[C@@H](NC(=O)[C@H](C)NC(=O)[C@H](CC(=O)O)NC(=O)[C@H](CO)NC(=O)[C@H](Cc1c[nH]cn1)NC(C)=O)C(C)O)C(C)O)C(C)O)C(=O)N[C@@H](C)C(=O)N[C@@H](C)C(=O)N[C@@H](CCCCN)C(=O)N[C@H]1CCCCNC(=O)C[C@@H](C(=O)N[C@@H](CC(C)C)C(=O)N[C@@H](CCCCN)C(=O)N[C@@H](CCCCN)C(=O)NCC(=O)NCC(=O)N[C@H](C(N)=O)C(C)O)NC(=O)[C@H](CC(N)=O)NC(=O)[C@H](CC(C)C)NC(=O)[C@H](Cc2ccc(O)cc2)NC1=O (stereo partly drawn) [Example 1] (Ac-HSDA[Thr(3ξ)]F[Thr(3ξ)]ENY[Thr(3ξ)]KLRKQ[Nle]AAKKYLNDLKKGG[Thr(3ξ)]-NH2; lactam 21-25) | – | + (+ 10-30%)
